Patent US7235534B2, “Antisense strategy to modulate estrogen receptor response (ER α and/or ER β )” (Institut de Cardiologie de Montreal, priority 2001, dated 2007)

Tests used:
[1] = tested on: Porcine smooth muscle cells (PSMC); assay: Mitogenic assay on PSMC (cell count); type: cell-based; details: for inhibition of PSMC proliferation mediated by FBS: 17βE 10^−7M, 72 h
Protocol: (§1) Confluent PAEC and PSMC were rinsed with DMEM and trypsinized. Cells were resuspended in 10 ml of DMEM, 5% FBS, and antibiotics, and a cell count was obtained with a Coulter Counter Z1 (Coulter Electronics, Luton, UK). PAEC and PSMC were seeded at 1×10^4 cells/well of 24-well tissue culture plates (Becton-Dickinson, Rutherford, N.J., U.S.A.) stimulated for 24 h in DMEM, 5% FBS, and antibiotics, and starved for 48 h in DMEM, 0.1% FBS, and antibiotics. […] After trypsinization, cell number was determined by using a Coulter counter.
(§2) Confluent PAEC and PSMC were rinsed with DMEM and trypsinized. Cells were resuspended in 10 mL of DMEM, 5% FBS, and antibiotics, and a cell count was obtained. PAEC and PSMC were initially seeded at 1×10^4cells/well of 24-well tissue culture plates stimulated for 24 hours in DMEM, 5% FBS, and antibiotics with or without antisense oligomers (10^−6 mol/L), and starved for 48 hours in DMEM, 0.1% FBS, and antibiotics with or without antisense oligomers (10^−6 mol/L daily) for G0 synchronization. Initial cell number for growth was determined using a Coulter counter. The cells were stimulated for 72 hours in DMEM, 1% FBS, antibiotics with or without antisense oligomers (10^−6 mol/L daily) and with or without of 17βE (Sigma). After trypsinization, cell number was determined by using a Coulter counter.

p38 MAPK = assay: Western blot of p38 MAPK phosphorylation in PSMC; type: cell-based, porcine; details: for reversal of the effect of 17βE on p38 MAPK induced by PDGF-BB: antagonist 10^−7M
Protocol: Confluent PAEC and PSMC were starved for 7 hours in DMEM and antibiotics. Culture medium was removed, and cells were rinsed twice with ice-cold DMEM. PSMC were incubated on ice in DMEM with or without 17βE (10^−8M) for 30 min, incubated at 37° C. for 5, 10, 15 and 30 min, then brought back on ice. Cell were then rinsed with cold DMEM, incubated on ice in DMEM, bovine serum albumin (1 mg/ml), PDGF-BB (10 ng/ml) for 30 min, incubated at 37° C. for 5 min, and then brought back on ice. PAEC were incubated on ice in DMEM with or without 17βE (10^−7M) for 30 min, then incubated at 37° C. for 5, 10, 15 and 30 min and brought back on ice. […] Total proteins were prepared by the addition of 500 μl of lysis buffer containing phenylmethylsulfonyl fluoride 1 mM, leupeptin 10 μg/ml, aprotinin 30 μg/ml, and NaVO3 1 mM (Sigma). Plates were incubated at 4° C. for 30 min and scraped, and the protein concentration was determined with a Bio-Rad protein kit (Bio-Rad, Hercules, Calif.). Same protein quantity for each cell type and condition were dissolved in Laemmli's buffer, boiled for 5 min in reducing conditions, separated by a 10% gradient SDS-PAGE (Protean II kit; Bio-Rad), and transblotted onto a 0.45-μm polyvinylidene difluoride membranes (Millipore Corp., Bedford, Mass.). The membranes were blocked in 5% Blotto-TTBS (5% nonfat dry milk; Bio-Rad), 0.05% Tween 20, 0.15 M NaCl, 25 mM Tris-HCl, pH 7.5) for 1 h at room temperature with gentle agitation and incubated overnight at 4° C. in 0.5% Blotto-TTBS with the addition of an anti-phospho p42/44 MAPK or an anti-phospho p38 MAPK rabbit polyclonal antiserums (α-pp42/44; dilution of 1:10 000, and α-pp38; dilution 1:5000, New England BioLabs, Beverly, Mass.). Membranes were washed with TTBS, and incubated at room temperature with an anti-rabbit IgG antibody coupled to horseradish peroxidase (dilution 1:10 000–1:20 000, Santa Cruz Biotechnology, Santa Cruz, Calif.) in 0.5% Blotto-TTBS for 30 min. […] Kaleidoscope molecular weight and SDS-plyacrylamide gel electrophoresis broad range marker proteins (Bio-Rad) were used as standards for SDS-plyacrylamide gel electrophoresis. Digital image densitometry (PDI Bioscience, Aurora, ON) was performed on x-ray film to determine relative percentages of p42/44 and p38 MAPK phosphorylation.
Confluent PAEC and PSMC were preteated with or without antisense sequences as described above for Western Blot analysis. Cells were rinsed twice with ice-cold DMEM. PSMC and PAEC were stimulated with or without 17βE (10^−8 mol/L) as previously described (Geraldes P). Briefly, PSMC were incubated on ice in DMEM with or without 17βE (10^−8 mol/L) for 30 minutes, incubated at 37° C. for 30 minutes, then brought back on ice. Cells were then rinsed with cold DMEM, incubated on ice in DMEM, bovine serum albumin (1 mg/mL), PDGF-BB (10 ng/mL) for 30 minutes, incubated at 37° C. for 5 and 30 minutes, and then brought back on ice. PAEC were incubated on ice in DMEM with or without 17βE (10^−8 mol/L) for 30 minutes, then incubated at 37° C. for 5 and 30 minutes and brought back on ice. Total proteins were prepared-by the addition of 500 μL of lysis buffer, incubated at 4° C. for 30 minutes and scraped to collect the proteins. Same quantity of protein was separated by a 10% gradient SDS-PAGE (Protean II kit; Bio-Rad), and transblotted onto a 0.45-μm polyvinylidene difluoride membranes (Millipore Corp.). The membranes were blocked for 1 hour at room temperature with gentle agitation and incubated overnight at 4° C. in 0.5% Blotto-TTBS with the addition of an antiphospho p42/44 MAPK or an antiphospho p38 MAPK rabbit polyclonal antiserums (α-pp42/44; dilution of 1:10000, and α-pp38; dilution 1:5 000, New England BioLabs, Beverly, Mass.). Membranes were washed with TTBS, and incubated at room temperature with an anti-rabbit IgG antibody coupled to horseradish peroxidase (dilution 1:10 000–1:20 000, Santa Cruz Biotechnology) in 0.5% Blotto-TTBS for 30 minutes. […]

[2] = tested on: Porcine aortic endothelial cells (PAEC); assay: Mitogenic assay on PAEC (cell count); type: cell-based; details: for inhibition of the 17βE mitogenic activity in PAEC: antagonist 10^−7M pretreatment
Protocol: as §1, §2

SMILES: CC/C(=C(\c1ccccc1)c1ccc(OCCN(C)C)cc1)c1ccccc1 [Tam, Tamoxifen]
- reversal of the anti-mitogenic activity of 17βE on PSMC ([1]; Tam 10^−7M, 17βE 10^−8M, FBS 1%): 75%
- reversal of the effect of 17βE on p38 MAPK induced by PDGF-BB (p38 MAPK; PDGF-BB 30 min): 51%
- inhibition of the 17βE mitogenic activity in PAEC ([2]; 17βE 10^−8M): inhibited completely

SMILES: CC/C(=C(\c1ccc(O)cc1)c1ccc(OCCN(C)C)cc1)c1ccccc1 [4-OHT, 4-OH-Tamoxifen]
- reversal of the anti-mitogenic activity of 17βE on PSMC ([1]; 4-OHT 10^−8M and 10^−7M, 17βE 10^−8M, FBS 1%): 81%
- reversal of the effect of 17βE on p38 MAPK induced by PDGF-BB (p38 MAPK; PDGF-BB 30 min): 53%
- inhibition of the 17βE mitogenic activity in PAEC ([2]; 17βE 10^−8M): inhibited completely

SMILES: C[C@]12CC[C@@H]3c4ccc(O)cc4CC[C@H]3[C@@H]1CC[C@@H]2O [17βE, 17-beta-estradiol]
- inhibition of PSMC proliferation mediated by FBS ([1]; FBS 1%): 88%
- inhibition of PSMC proliferation mediated by FBS ([1]; FBS 5%): 90%
- inhibition of FBS 1% mitogenic activity on PSMC ([1]; 17βE 10^−8M, Example 1): inhibited completely
- prevention of PSMC proliferation mediated by FBS 1% ([1]; 17βE 10^−8 mol/L, Example 2): 95%
- reversal of PDGF-BB-increased p38 MAPK phosphorylation (p38 MAPK; 17βE 10^−8 mol/L 30 minutes, Example 2): reversed
- inhibition of PDGF-BB-mediated p38 MAPK phosphorylation (p38 MAPK; 17βE (10^−8M) pretreatment 30 minutes, PDGF-BB 30 min): 85%
- reduction of PDGF-BB induced phosphorylation of p38 MAPK (p38 MAPK; 17βE for 30 min): 85%
- change in basal phosphorylation of p38 MAPK (p38 MAPK; substance alone, data not shown): did not observe any change
- induction of PAEC proliferation over FBS 1% treatment ([2]; 17βE 10^−8M, 72 h, Example 1): 37%
- induction of PAEC proliferation over FBS 1% treatment ([2]; 17βE 10^−8 mol/L, Example 2): 123%
- concentration of maximum induction of PAEC proliferation ([2]; 17βE 10^−10 to 10^−7M, DMEM 1% FBS, data not shown): 10^−8 M

SMILES: O=C(c1ccc(OCN2CCCCC2)cc1)c1c(-c2ccc(O)cc2)sc2cc(O)ccc12 [Ral, Raloxifen]
- reversal of the anti-mitogenic activity of 17βE on PSMC ([1]; Rai 10^−1M as printed, 17βE 10^−8M, FBS 1%): 100%
- reversal of the effect of 17βE on p38 MAPK induced by PDGF-BB (p38 MAPK; PDGF-BB 30 min): 32%
- inhibition of the 17βE mitogenic activity in PAEC ([2]; 17βE 10^−8M): inhibited completely
